We go through 23 compounds from US20110319392A1, “Thiazole Sulfonamide And Oxazole Sulfonamide Kinase Inhibitors” (priority 2009, published 2011).

One test concerns the target T1, ErbB2 (Homo sapiens, UniProt P04626).
T1 construct: made in house; host or cells: baculovirus expression system
The experiment in a line: ErbB-2 substrate phosphorylation assay (HTRF). The class given is biochemical. The method, boiled down: (§1)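 Baculovirus-expressed EGFR (0.8 nM) or ErbB2 (10 nM) in enzyme mix, preincubated 1 h at 20 °C with compound (0.00027–47.6 μM final), then 90 min at 20 °C with substrate mix of 20 μM ATP, 0.8 uM biotinylated Peptide C, MnCl2, MOPS pH 7.5. Phosphotyrosine by HTRF; pIC50 reported.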

The target in a further test is T2, EGFR (Homo sapiens, UniProt P00533).
T2 construct: made in house; host or cells: baculovirus expression system
T2 sequence (P00533 25-1210): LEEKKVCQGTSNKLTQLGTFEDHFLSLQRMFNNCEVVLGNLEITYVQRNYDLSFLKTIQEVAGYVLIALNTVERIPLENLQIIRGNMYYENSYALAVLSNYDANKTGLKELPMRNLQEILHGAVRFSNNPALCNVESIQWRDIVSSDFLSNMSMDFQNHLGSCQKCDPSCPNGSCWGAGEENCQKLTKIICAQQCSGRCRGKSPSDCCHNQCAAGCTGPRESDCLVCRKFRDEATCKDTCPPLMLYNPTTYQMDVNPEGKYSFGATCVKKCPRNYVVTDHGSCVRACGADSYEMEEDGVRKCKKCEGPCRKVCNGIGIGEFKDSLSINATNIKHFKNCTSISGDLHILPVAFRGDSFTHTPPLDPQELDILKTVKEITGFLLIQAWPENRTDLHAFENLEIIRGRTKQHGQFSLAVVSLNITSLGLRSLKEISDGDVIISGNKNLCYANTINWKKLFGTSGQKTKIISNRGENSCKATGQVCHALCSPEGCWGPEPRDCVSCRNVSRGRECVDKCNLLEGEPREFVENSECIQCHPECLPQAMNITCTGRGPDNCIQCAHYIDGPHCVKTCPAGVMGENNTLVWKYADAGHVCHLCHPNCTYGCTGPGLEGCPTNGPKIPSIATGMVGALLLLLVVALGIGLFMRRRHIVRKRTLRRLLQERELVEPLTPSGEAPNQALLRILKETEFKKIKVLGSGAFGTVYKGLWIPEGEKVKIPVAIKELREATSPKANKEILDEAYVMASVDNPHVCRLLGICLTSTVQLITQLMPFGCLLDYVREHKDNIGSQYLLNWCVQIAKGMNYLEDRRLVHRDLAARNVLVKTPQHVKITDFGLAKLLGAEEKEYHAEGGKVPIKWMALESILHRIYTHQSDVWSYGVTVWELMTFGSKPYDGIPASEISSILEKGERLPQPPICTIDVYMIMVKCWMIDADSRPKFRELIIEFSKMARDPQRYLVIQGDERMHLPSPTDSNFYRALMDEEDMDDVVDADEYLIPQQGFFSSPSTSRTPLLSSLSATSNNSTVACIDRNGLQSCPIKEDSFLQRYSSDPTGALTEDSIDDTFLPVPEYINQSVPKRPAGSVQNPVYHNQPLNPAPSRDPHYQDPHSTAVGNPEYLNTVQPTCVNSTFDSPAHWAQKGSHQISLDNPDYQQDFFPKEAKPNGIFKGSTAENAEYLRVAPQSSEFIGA
The experiment in a line: EGFR substrate phosphorylation assay (HTRF). The class given is biochemical. The method, boiled down:
as §1

For the next test, the system named is SK-MEL-3 tumor cells. As to the kind of experiment: Cell growth inhibition assay (CellTiter-Glo), SK-MEL-3. The class given is cell-based, Human. The settings on record: Homo sapiens, SK-MEL3. The method, boiled down:
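Cells plated at 500 cells/well in their growth media, dosed next day with nine-step 1:3 compound dilutions (final DMSO 0.2%), then incubated 3 days at 37° C, 5% CO2. Total ATP read by CellTiter-Glo luminescence as a surrogate for cell number; IC50 interpolated from 4-parameter fit versus DMSO controls.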

pIC50: −log10 of the molar value.

One may read the pIC50 as the negative decadic logarithm of the IC50, by convention in mol/L.

T1 sequence (P04626 23-1255): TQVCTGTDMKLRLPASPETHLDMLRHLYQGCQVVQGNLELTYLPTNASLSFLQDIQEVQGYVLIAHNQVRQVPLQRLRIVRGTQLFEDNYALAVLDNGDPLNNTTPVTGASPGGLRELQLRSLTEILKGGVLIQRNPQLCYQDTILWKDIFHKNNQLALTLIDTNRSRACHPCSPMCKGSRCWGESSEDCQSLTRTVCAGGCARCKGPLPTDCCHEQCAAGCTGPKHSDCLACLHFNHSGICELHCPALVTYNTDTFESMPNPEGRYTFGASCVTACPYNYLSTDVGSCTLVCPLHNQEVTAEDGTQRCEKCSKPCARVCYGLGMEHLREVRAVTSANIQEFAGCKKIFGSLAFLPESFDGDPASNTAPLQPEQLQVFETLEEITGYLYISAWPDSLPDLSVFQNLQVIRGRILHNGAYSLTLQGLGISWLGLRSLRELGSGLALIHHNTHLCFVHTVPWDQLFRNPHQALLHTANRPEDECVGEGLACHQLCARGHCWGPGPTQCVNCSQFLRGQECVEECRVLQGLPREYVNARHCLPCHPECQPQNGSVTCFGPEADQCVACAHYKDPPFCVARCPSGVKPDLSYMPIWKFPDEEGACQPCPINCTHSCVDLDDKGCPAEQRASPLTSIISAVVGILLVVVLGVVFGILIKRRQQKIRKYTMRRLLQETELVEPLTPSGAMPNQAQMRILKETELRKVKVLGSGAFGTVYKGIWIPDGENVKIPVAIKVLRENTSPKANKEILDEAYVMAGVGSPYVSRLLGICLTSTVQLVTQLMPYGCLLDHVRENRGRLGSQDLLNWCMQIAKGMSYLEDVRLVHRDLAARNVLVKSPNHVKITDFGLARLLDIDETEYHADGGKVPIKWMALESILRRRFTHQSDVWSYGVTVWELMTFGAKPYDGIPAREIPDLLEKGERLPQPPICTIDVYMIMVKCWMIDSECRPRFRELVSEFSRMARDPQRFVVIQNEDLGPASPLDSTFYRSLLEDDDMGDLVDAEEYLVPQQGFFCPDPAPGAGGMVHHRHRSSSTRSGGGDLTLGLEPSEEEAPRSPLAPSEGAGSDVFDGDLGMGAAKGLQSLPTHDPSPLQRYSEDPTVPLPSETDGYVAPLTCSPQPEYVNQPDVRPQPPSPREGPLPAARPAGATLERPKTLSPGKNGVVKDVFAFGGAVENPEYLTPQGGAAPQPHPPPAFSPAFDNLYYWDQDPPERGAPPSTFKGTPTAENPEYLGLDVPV

In the case of `CC(C)c1nc(-c2cccc(NS(=O)(=O)c3c(F)cccc3F)c2)c(-c2ccnc(Nc3cc(F)c(N4CCN(CCS(C)(=O)=O)CC4)cc3F)n2)s1` [Example 87], the negative logarithm of the IC50 (pIC50) was 6.00 to 7.00 against ErbB2, less than 6.00 at EGFR and more than 7.00 with SK-MEL-3 tumor cells.
As to `CC(=O)N1CCN(c2ccc(Nc3nccc(-c4sc(C(C)C)nc4-c4cccc(NS(=O)(=O)c5cc(F)ccc5F)c4)n3)cn2)CC1` [Example 96], the figures for the pIC50 on ErbB2, on EGFR and with SK-MEL-3 tumor cells were less than 6.00, 6.00 to 7.00 and more than 7.00, respectively.
On to `CC(C)c1nc(-c2cccc(NS(=O)(=O)c3ccccc3)c2)c(-c2ccnc(Nc3ccc(F)c(N4CCN(CCS(C)(=O)=O)CC4)c3)n2)s1` [Example 73], for which the negative-log IC50 (pIC50) was 6.00 to 7.00 against ErbB2, 6.00 to 7.00 against EGFR and more than 7.00 in the test with SK-MEL-3 tumor cells.
As to `CC(C)c1nc(-c2cc(F)cc(NS(=O)(=O)c3ccc(F)cc3)c2)c(-c2ccnc(Nc3ccc(N4CCOCC4)c(F)c3)n2)s1` [Example 83], the pIC50 is less than 6.00 against ErbB2, less than 6.00 against EGFR and 6.00 to 7.00 in the test with SK-MEL-3 tumor cells.
As for `CCc1nc(-c2cccc(NS(=O)(=O)c3ccccc3)c2)c(-c2ccnc(Nc3ccc(N4CCOCC4)c(F)c3)n2)s1` [Example 4], the values for the negative logarithm of the IC50 (pIC50) at ErbB2, at EGFR and in the test with SK-MEL-3 tumor cells were less than 6.00, less than 6.00 and 6.00 to 7.00, respectively.
As for `CC(=O)N1CCc2cc(Nc3nccc(-c4sc(C(C)C)nc4-c4cccc(NS(=O)(=O)c5ccccc5)c4)n3)ccc21` [Example 71], the negative logarithm of the IC50 (pIC50) on ErbB2 is more than 7.00; against EGFR, 6.00 to 7.00; in the test with SK-MEL-3 tumor cells it was more than 7.00.
Take `CC(C)c1nc(-c2cc(F)cc(NS(=O)(=O)c3c(F)cccc3F)c2)c(-c2ccnc(Nc3ccc(N4CCOCC4)c(F)c3)n2)s1` [Example 85]: the pIC50 against ErbB2 was 6.00 to 7.00; at EGFR, less than 6.00; in the test with SK-MEL-3 tumor cells, more than 7.00.
As for `Cc1cc(N2CCC(N3CCCCC3)CC2)ccc1Nc1nccc(-c2sc(C(C)C)nc2-c2cccc(NS(=O)(=O)c3c(F)cccc3F)c2)n1` [Example 91], the pIC50 against ErbB2 is more than 7.00; against EGFR, more than 7.00; with SK-MEL-3 tumor cells, 6.00 to 7.00.
Turning to `CC(C)c1nc(-c2cccc(NS(=O)(=O)c3c(F)cccc3F)c2)c(-c2ccnc(Nc3cccc(N4CCN(C)CC4)c3)n2)s1` [Example 81], the pIC50 on ErbB2 is 6.00 to 7.00; against EGFR, more than 7.00; in the test on SK-MEL-3 tumor cells it was more than 7.00.
`CC(C)c1nc(-c2cccc(NS(=O)(=O)c3c(F)cccc3F)c2)c(-c2ccnc(Nc3ccc(N4CCCNCC4)nc3)n2)s1` [Example 82]: the results for the negative logarithm of the IC50 (pIC50) at ErbB2, on EGFR and in the test on SK-MEL-3 tumor cells were 6.00 to 7.00, more than 7.00 and more than 7.00, respectively.
Consider `COc1cc(N2CCN(CCF)CC2)ccc1Nc1nccc(-c2sc(C(C)C)nc2-c2cccc(NS(=O)(=O)c3c(F)cccc3F)c2)n1` [Example 79], for which the pIC50 against ErbB2, against EGFR and with SK-MEL-3 tumor cells was 6.00 to 7.00 each time.
For the compound `CCc1nc(-c2cccc(NS(=O)(=O)c3ccccc3)c2)c(-c2ccnc(Nc3ccc(OC)c(N4CCN(CCS(C)(=O)=O)CC4)c3)n2)s1` [Example 5, N-[3-(2-Ethyl-5-{2-[(4-(methyloxy)-3-{4-[2-(methylsulfonyl)ethyl]-1-piperazinyl}phenyl)amino]-4-pyrimidinyl}-1,3-thiazol-4-yl)phenyl]benzenesulfonamide], the pIC50 was 6.00 to 7.00 against ErbB2, 6.00 to 7.00 against EGFR and more than 7.00 in the test on SK-MEL-3 tumor cells.
As to `CC(C)c1nc(-c2cccc(NS(=O)(=O)c3c(F)cccc3F)c2)c(-c2ccnc(Nc3ccc(N4CC[C@@H](O)C4)nc3)n2)s1` [Example 89], the pIC50 is 6.00 to 7.00 against ErbB2, 6.00 to 7.00 against EGFR and more than 7.00 in the test with SK-MEL-3 tumor cells.
For `CC(C)c1nc(-c2cccc(NS(=O)(=O)c3c(F)cccc3F)c2)c(-c2ccnc(Nc3ccc(N4CCCN(CCS(C)(=O)=O)CC4)nc3)n2)s1` [Example 88], the pIC50 was 6.00 to 7.00 at ErbB2, 6.00 to 7.00 at EGFR and more than 7.00 with SK-MEL-3 tumor cells.
On to `CC(C)c1nc(-c2cccc(NS(=O)(=O)c3c(F)cccc3F)c2)c(-c2ccnc(Nc3ccc(N4CCN(CCO)CC4)nc3)n2)s1` [Example 80], for which the pIC50 at ErbB2 was less than 6.00; on EGFR, more than 7.00; with SK-MEL-3 tumor cells it was more than 7.00.
`CC(C)c1nc(-c2cccc(NS(=O)(=O)c3c(F)cccc3F)c2)c(-c2ccnc(Nc3ccc(N4CCN(C(C)C)CC4)cc3O)n2)s1` [Example 78]: the pIC50 at ErbB2 is 6.00 to 7.00; against EGFR, 6.00 to 7.00; in the test with SK-MEL-3 tumor cells, more than 7.00.
With `CC(C)c1nc(-c2cccc(NS(=O)(=O)c3ccccc3)c2)c(-c2ccnc(Nc3ccc(N4CCOCC4)cn3)n2)s1` [Example 92], the negative-log IC50 (pIC50) was less than 6.00 at ErbB2, less than 6.00 at EGFR and 6.00 to 7.00 in the test on SK-MEL-3 tumor cells.
Turning to `C=C(C)c1nc(-c2cccc(NS(=O)(=O)c3c(F)cccc3F)c2)c(-c2ccnc(Nc3ccc(N4CCN(CCF)CC4)c(F)c3)n2)s1` [Example 93], the negative logarithm of the IC50 (pIC50) on ErbB2, at EGFR and in the test on SK-MEL-3 tumor cells was 6.00 to 7.00 in each case.
On to `CC(C)c1nc(-c2cccc(NS(=O)(=O)c3ccccc3)c2)c(-c2ccnc(Nc3ccc(CC4CCN(CCS(C)(=O)=O)CC4)c(F)c3)n2)s1` [Example 72], for which the pIC50 against ErbB2 was less than 6.00; against EGFR, 6.00 to 7.00; with SK-MEL-3 tumor cells, more than 7.00.
Consider `CC(C)c1nc(-c2cc(F)cc(NS(=O)(=O)c3c(F)cccc3F)c2)c(-c2ccnc(Nc3ccc(N4CCOCC4)nc3)n2)s1` [Example 84], for which the pIC50 was less than 6.00 against ErbB2, 6.00 to 7.00 against EGFR and more than 7.00 in the test on SK-MEL-3 tumor cells.
Regarding `CCc1nc(-c2cccc(NS(=O)(=O)c3ccccc3)c2)c(-c2ccnc(Nc3ccc(N4CCN(C(C)=O)CC4)nc3)n2)s1` [Example 3, N-{3-[5-(2-{[6-(4-Acetyl-1-piperazinyl)-3-pyridinyl]amino}-4-pyrimidinyl)-2-ethyl-1,3-thiazol-4-yl]phenyl}benzenesulfonamide], the pIC50 is less than 6.00 on ErbB2, less than 6.00 against EGFR and more than 7.00 in the test with SK-MEL-3 tumor cells.
As for `CC(C)c1nc(-c2cccc(NS(=O)(=O)c3ccccc3)c2)c(-c2ccnc(Nc3ccc(N4CCN(CCS(C)(=O)=O)CC4)c(F)c3F)n2)s1` [Example 74], the results for the pIC50 on ErbB2, against EGFR and with SK-MEL-3 tumor cells were less than 6.00, less than 6.00 and 6.00 to 7.00, respectively.
For the compound `CC(C)c1nc(-c2ccc(F)c(NS(=O)(=O)c3c(F)cccc3F)c2)c(-c2ccnc(Nc3ccc(N4CCN(CCS(C)(=O)=O)CC4)c(F)c3)n2)s1` [Example 95], the pIC50 at ErbB2, at EGFR and with SK-MEL-3 tumor cells was 6.00 to 7.00 in each case.
